Experimental findings from patent US9914730B2, “Azaquinazoline inhibitors of Atypical protein Kinase C” (Ignyta, Inc., priority 2012, dated 2018) are described below.

pIC50: −log10 of the molar value.

In this assay the target is T1, full-length human PKCι (Homo sapiens, UniProt P41743).
T1 construct: Recombinant, full-length human PKCι expressed in Sf21 insect cells is also commercially available; purchased; host or cells: Sf21 insect cells
T1 sequence (P41743 1-596): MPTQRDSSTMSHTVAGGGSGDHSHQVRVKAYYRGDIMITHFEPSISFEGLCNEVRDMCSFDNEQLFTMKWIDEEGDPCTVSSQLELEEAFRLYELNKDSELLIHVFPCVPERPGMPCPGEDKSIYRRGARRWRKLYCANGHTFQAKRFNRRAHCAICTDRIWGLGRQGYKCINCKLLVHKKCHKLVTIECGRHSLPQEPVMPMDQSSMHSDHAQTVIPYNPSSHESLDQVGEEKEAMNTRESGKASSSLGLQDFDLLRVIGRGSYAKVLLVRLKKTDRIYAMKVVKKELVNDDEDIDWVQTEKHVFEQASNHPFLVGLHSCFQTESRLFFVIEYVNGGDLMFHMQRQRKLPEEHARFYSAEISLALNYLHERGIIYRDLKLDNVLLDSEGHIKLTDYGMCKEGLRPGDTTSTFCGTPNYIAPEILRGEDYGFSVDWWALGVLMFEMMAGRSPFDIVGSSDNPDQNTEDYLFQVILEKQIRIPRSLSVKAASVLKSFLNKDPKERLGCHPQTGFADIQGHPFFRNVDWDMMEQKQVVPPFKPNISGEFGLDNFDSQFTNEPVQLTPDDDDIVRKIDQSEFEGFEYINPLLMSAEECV
The experiment in a line: PKCι IC50 IMAP assay, full-length PKCι at 150 μM ATP. The assay is classed as biochemical. Particulars: read-out: IC50 in IMAP assay against full length PKCi at 150 μM ATP. The method, boiled down: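 Full-length hPKCι (Sf21) ~15 pM; 5FAM-peptide 100 nM; ATP 150 μM (5× KM^APP); tris pH7.5/MgCl2/EGTA/DTT/Triton, 4% DMSO; 60 min RT; IMAP stop, 2 h; FP 485/530 nm; IC50 from % inhibition curves.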

By pIC50 is commonly meant the negative decadic logarithm of the IC50, by convention in mol/L. Take `Fc1cc(F)c(F)c(Nc2cc(-c3nc(N4CCNCC4)c4c(C5CCC5)cncc4n3)ccn2)n1` [Example 786, [4-(5-Cyclobutyl-4-piperazin-1-yl-pyrido[3,4-d]pyrimidin-2-yl)-pyridin-2-yl]-(3,4,6-trifluoro-pyridin-2-yl)-amine]: the pIC50 is > 7.00.

Consider `COc1cncc2nc(-c3ccnc(Nc4ccc(N5CCOCC5)nc4)c3)nc(N[C@@H]3CCNC3)c12` [Example 330, {5-Methoxy-2-[2-(6-morpholin-4-yl-pyridin-3-ylamino)-pyridin-4-yl]-pyrido[3,4-d]pyrimidin-4-yl}-(R)-pyrrolidin-3-yl-amine], for which the pIC50 was > 7.00.

Take `OC1CCN(c2nc(-c3ccnc4[nH]c(C5(c6ccccc6)CC5)cc34)nc3cncc(C4CC4)c23)CC1` [Example 1244, 1-{5-Cyclopropyl-2-[2-(1-phenyl-cyclopropyl)-1H-pyrrolo[2,3-b]pyridin-4-yl]-pyrido[3,4-d]pyrimidin-4-yl}-piperidin-4-ol]: the negative logarithm of the IC50 (pIC50) is > 7.00.

As for `Fc1cnc(Nc2cc(-c3nc(NC4CCOCC4)c4c(C5CC5)cncc4n3)ccn2)c(F)c1` [Example 2168, {5-Cyclopropyl-2-[2-(3,5-difluoro-pyridin-2-ylamino)-pyridin-4-yl]-pyrido[3,4-d]pyrimidin-4-yl}-(tetrahydro-pyran-4-yl)-amine], the negative logarithm of the IC50 (pIC50) is 4.40 to 5.00.

As to `c1ccc(Nc2cc(-c3nc(NC[C@@H]4CCCN4)c4c(C5CC5)cncc4n3)ccn2)cc1` [Example 697, [5-Cyclopropyl-2-(2-phenylamino-pyridin-4-yl)-pyrido[3,4-d]pyrimidin-4-yl]-(S)-1-pyrrolidin-2-ylmethyl-amine], the pIC50 was 6.00 to 7.00.

In the case of `Fc1ccccc1-n1cc(Nc2cc(-c3nc(N4CCNCC4)c4c(C5CC5)cncc4n3)ccn2)cn1` [Example 817, [4-(5-Cyclopropyl-4-piperazin-1-yl-pyrido[3,4-d]pyrimidin-2-yl)-pyridin-2-yl]-[1-(2-fluoro-phenyl)-1H-pyrazol-4-yl]-amine], the pIC50 is > 7.00.

Consider `C[C@H]1CN(c2nc(-c3ccnc(Nc4ccc(F)cc4)c3)nc3cncc(C4CC4)c23)CCN1` [Example 693, {4-[5-Cyclopropyl-4-((S)-3-methyl-piperazin-1-yl)-pyrido[3,4-d]pyrimidin-2-yl]-pyridin-2-yl}-(4-fluoro-phenyl)-amine], for which the negative-log IC50 (pIC50) was > 7.00.

Turning to `FC(F)(F)c1ccc(Cl)c(Nc2cc(-c3nc(N4CCNCC4)c4c(C5CC5)cncc4n3)ccn2)c1` [Example 597, (2-Chloro-5-trifluoromethyl-phenyl)-[4-(5-cyclopropyl-4-piperazin-1-yl-pyrido[3,4-d]pyrimidin-2-yl)-pyridin-2-yl]-amine], the negative-log IC50 (pIC50) is 4.40 to 5.00.

Consider `COc1cncc2nc(-c3ccnc(Nc4cncc(Cl)c4)c3)nc(N3CCNCC3)c12` [Example 417, (5-Chloro-pyridin-3-yl)-[4-(5-methoxy-4-piperazin-1-yl-pyrido[3,4-d]pyrimidin-2-yl)-pyridin-2-yl]-amine], for which the pIC50 was 6.00 to 7.00.

Regarding `Fc1cc(F)c(F)c(Nc2cc(-c3nc(N[C@@H]4CCNC4)c4c(C5CC5)cncc4n3)ccn2)n1` [Example 2054, {5-Cyclopropyl-2-[2-(3,4,6-trifluoro-pyridin-2-ylamino)-pyridin-4-yl]-pyrido[3,4-d]pyrimidin-4-yl}-(R)-pyrrolidin-3-yl-amine], the pIC50 was > 7.00.

As for `CN(c1nc(-c2ccnc(Nc3nc(F)c(F)cc3F)c2)nc2cncc(C3CCC3)c12)C1CCNCC1` [Example 2163, {5-Cyclobutyl-2-[2-(3,5,6-trifluoro-pyridin-2-ylamino)-pyridin-4-yl]-pyrido[3,4-d]pyrimidin-4-yl}-methyl-piperidin-4-yl-amine], the negative logarithm of the IC50 (pIC50) is > 7.00.

Consider `FC(F)(F)c1cc2c(-c3nc(NC4CCNCC4(F)F)c4c(C5CC5)cncc4n3)ccnc2[nH]1` (centres unmarked) [Example 2155, [5-Cyclopropyl-2-(2-trifluoromethyl-1H-pyrrolo[2,3-b]pyridin-4-yl)-pyrido[3,4-d]pyrimidin-4-yl]-(3,3-difluoro-piperidin-4-yl)-amine], for which the pIC50 is 6.00 to 7.00.

Turning to `NC(=O)N[C@H](CNc1nc(-c2ccncc2)nc2cnccc12)Cc1ccccc1` [Example 84, (1-phenyl-3-{[2-(pyridin-4-yl)pyrido[3,4-d]pyrimidin-4-yl]amino}propan-2-yl)urea], the negative logarithm of the IC50 (pIC50) is 4.40 to 5.00.

With `FC(F)(F)c1ccc(Nc2cc(-c3nc(N4CCNCC4)c4c(C5CC5)cncc4n3)ccn2)cn1` [Example 270, [4-(5-Cyclopropyl-4-piperazin-1-yl-pyrido[3,4-d]pyrimidin-2-yl)-pyridin-2-yl]-(6-trifluoromethyl-pyridin-3-yl)-amine], the pIC50 was 6.00 to 7.00.

For the compound `Fc1ccc(C(F)(F)F)cc1Nc1cc(-c2nc(N3CCNCC3)c3c(C4CC4)cncc3n2)ccn1` [Example 522, [4-(5-Cyclopropyl-4-piperazin-1-yl-pyrido[3,4-d]pyrimidin-2-yl)-pyridin-2-yl]-(2-fluoro-5-trifluoromethyl-phenyl)-amine], the negative-log IC50 (pIC50) is 6.00 to 7.00.

For “[4-(5-Cyclopropyl- 4-piperazin-1-yl- pyrido[3,4- d]pyrimidin-2-yl)- pyridin-2-yl]-(2,3- dichloro-phenyl)- amine [Example 543]”, the pIC50 was > 7.00.

Take `c1cc(Nc2cc(-c3nc(N4CCNCC4)c4c(C5CC5)cncc4n3)ccn2)cc(N2CCOCC2)c1` [Example 2023, [4-(5-Cyclopropyl-4-piperazin-1-yl-pyrido[3,4-d]pyrimidin-2-yl)-pyridin-2-yl]-(3-morpholin-4-yl-phenyl)-amine]: the pIC50 was > 7.00.

Take `CCc1cc2c(-c3nc(N4CCNCC4)c4c(OC)cncc4n3)ccnc2[nH]1` [Example 1204, 2-(2-Ethyl-1H-pyrrolo[2,3-b]pyridin-4-yl)-5methoxy-4-piperazin-1-yl-pyrido[3,4-d]pyrimidine]: the negative-log IC50 (pIC50) was 6.00 to 7.00.

For the compound `c1cc(-c2nc(N3CCNCC3)c3c(C4CC4)cncc3n2)c2cc([C@H]3C[C@H]4CC[C@@H]3C4)[nH]c2n1` (racemic) [Example 2079, (±)-2-((endo)-2-Bicyclo[2.2.1]hept-2-yl-1H-pyrrolo[2,3-b]pyridin-4-yl)-5-cyclopropyl-4-piperazin-1-yl-pyrido[3,4-d]pyrimidine], the pIC50 is > 7.00.

Take `COc1cncc2nc(-c3ccnc(Nc4ccccc4)c3)nc(N3CCN[C@@H](C4CC4)C3)c12` [Example 236]: the negative-log IC50 (pIC50) is 6.00 to 7.00.

`Fc1c(-c2nc(N3CCNCC3)c3c(C4CC4)cncc3n2)ccnc1Nc1ccccc1` [Example 701, [4-(5-Cyclopropyl-4-piperazin-1-yl-pyrido[3,4-d]pyrimidin-2-yl)-3-fluoro-pyridin-2-yl]-phenyl-amine]: the negative-log IC50 (pIC50) is 4.40 to 5.00.

Consider `c1ccc(Nc2cc(-c3nc(N4CCNCC4)c4c(C5CC5)cncc4n3)ccn2)nc1` [Example 750, [4-(5-Cyclopropyl-4-piperazin-1-yl-pyrido[3,4-d]pyrimidin-2-yl)-pyridin-2-yl]-pyridin-2-yl-amine], for which the negative logarithm of the IC50 (pIC50) is > 7.00.

As for `Fc1cc(C2CC2)cnc1Nc1cc(-c2nc(N3CCNCC3)c3c(C4CC4)cncc3n2)ccn1` [Example 812, (5-Cyclopropyl-3-fluoro-pyridin-2-yl)-[4-(5-cyclopropyl-4-piperazin-1-yl-pyrido[3,4-d]pyrimidin-2-yl)-pyridin-2-yl]-amine], the negative-log IC50 (pIC50) was > 7.00.

On to `c1ccc(Nc2cc(-c3nc(N4CCNCC4)c4c(C5CC5)cncc4n3)ccn2)cc1` [Example 279, [4-(5-Cyclopropyl-4-piperazin-1-yl-pyrido[3,4-d]pyrimidin-2-yl)-pyridin-2-yl]-phenyl-amine], for which the pIC50 is > 7.00.

Turning to `COc1cncc2nc(-c3ccnc(Nc4cc(C#N)ccn4)c3)nc(N3CCC(O)CC3)c12` [Example 402, 2-{4-[4-(4-Hydroxy-piperidin-1-yl)-5-methoxy-pyrido[3,4-d]pyrimidin-2-yl]-pyridin-2-ylamino}-isonicotinonitrile], the negative-log IC50 (pIC50) is 6.00 to 7.00.

`Fc1cncc(F)c1Nc1cc(-c2nc(N3CCNCC3)c3c(C4CC4)cncc3n2)ccn1` [Example 705, [4-(5-Cyclopropyl-4-piperazin-1-yl-pyrido[3,4-d]pyrimidin-2-yl)-pyridin-2-yl]-(3,5-difluoro-pyridin-4-yl)-amine]: the pIC50 was > 7.00.

For `Clc1ncc(Cl)c2c(N3CCNCC3)nc(-c3ccncc3)nc12` [Example 134, 1-[5,8-dichloro-2-(pyridin-4-yl)pyrido[3,4-d]pyrimidin-4-yl]piperazine], the pIC50 is > 7.00.

On to `Fc1cc(C2CC2)ccc1Nc1cc(-c2nc(N3CCNCC3)c3c(C4CC4)cncc3n2)ccn1` [Example 641, (4-Cyclopropyl-2-fluoro-phenyl)-[4-(5-cyclopropyl-4-piperazin-1-yl-pyrido[3,4-d]pyrimidin-2-yl)-pyridin-2-yl]-amine], for which the negative logarithm of the IC50 (pIC50) is > 7.00.

With `COc1cncc2nc(-c3ccnc(NC(C)=O)c3)nc(N3CCC(O)CC3)c12` [Example 215, N-{4-[4-(4-Hydroxy-piperidin-1-yl)-5-methoxy-pyrido[3,4-d]pyrimidin-2-yl]-pyridin-2-yl}-acetamide], the pIC50 was 6.00 to 7.00.
